Measured values as given in patent publication US11772041B2, “Composite amine absorbent, and device and method for removing CO2 or H2S, or both of CO2 and H2S” (MITSUBISHI HEAVY INDUSTRIES, LTD., priority 2019, dated 2023).

Legend:
[1] = Solubility in water of ether bond-containing compounds; assay type: physicochemical
Text: The solubilities in water of the first ether bond-containing compound (propylene glycol monopropyl ether) in Test Example 1, the first ether bond-containing compound (dipropylene glycol monopropyl ether) in Test Example 7, and the ether bond-containing compound of the chemical formula I wherein R^2 has 4 (C4) or more carbon atoms (butylene glycol monobutyl ether) were compared.
The solubilities in water of the first ether bond-containing compound (propylene glycol monopropyl ether) in Test Example 1, the ether bond-containing compound (dipropylene glycol monopropyl ether) in Test Example 7, and the ether bond-containing compound of the chemical formula I wherein R^3 is an alkyl group (propylene glycol dibutyl ether) were compared.

[2] = Boiling point of ether bond-containing compounds; conditions: Table 5, Test Example 23; under atmospheric pressure

Compound: CCCCOCCCCO [Butylene glycol monobutyl ether, butylene glycol monobutyl ether]
- Solubility in water (% by weight) ([1]; Table 3, Test Example 21): About 1 % by weight

Compound: COCCOC(C)=O [Ethylene glycol monomethyl ether acetate, ethylene glycol monomethyl ether acetate]
- Boiling point (° c.) [2]: 143 ° c.

Compound: CCCCOCC(C)OCCCC (stereo not drawn) [Propylene glycol dibutyl ether, propylene glycol dibutyl ether]
- Solubility in water (% by weight) ([1]; Table 4, Test Example 22): Less than 1 % by weight
